Test results as given in ChEMBL document CHEMBL3046799, “Synthesis and in vivo anticancer and antiangiogenic effects of novel thioxothiazolidin-4-one derivatives against transplantable mouse tumor” (2010).
Activity calls are given as the source filed them. No cut-off for these calls is given here.

What was measured:
EAT [1] = assay: Antitumor activity against Mus musculus (mouse) EAT xenografted in Mus musculus (mouse) assessed as decrease in body weight at 100 mg/kg, ip administered day 7 to 11 post tumor implantation measured on day 12 relative to control
EAT [2] = assay: Antiangiogenic activity in Mus musculus (mouse) EAT xenografted in Mus musculus (mouse) assessed as reduction of vascularization at 100 mg/kg, ip administered day 7 to 11 post tumor implantation measured on day 12 relative to control; assay type: functional, organism-based; set-up: dose 100 mg/kg
[3] = Antitumor activity against Mus musculus (mouse) EAT xenografted in Mus musculus (mouse) assessed as increase in life span at 100 mg/kg, ip administered day 7 to 11 post tumor implantation measured up to 28 days relative to control; assay type: functional; settings: route intraperitoneal
EAT [4] = assay: (§1) Antitumor activity against Mus musculus (mouse) EAT xenografted in Mus musculus (mouse) assessed as decrease in tumor volume at 100 mg/kg, ip administered day 7 to 11 post tumor implantation measured on day 12 (reference value: 7.6 +/- 0.9 ml); assay type: functional
[5] = as §1; assay type: functional; settings: route intraperitoneal

SMILES | Activity (EAT [1]) | Activity (EAT [2]) | Activity [3] | Activity (EAT [4]) | Activity [5]
CCCCNC(=O)CN1C(=O)/C(=C/c2ccc(-c3ccc(Cl)cc3)o2)SC1=S | Active | Active | 12.5% |  | 
O=C(CN1C(=O)/C(=C/c2ccc(-c3ccc(Cl)cc3)o2)SC1=S)Nc1ccon1 | Active | Active | 18.25% | Active | 
COc1ccc(CCNC(=O)CN2C(=O)/C(=C/c3ccc(-c4ccc(Cl)cc4)o3)SC2=S)cc1 | Active | Active | 37.5% |  | 5.7 mL
O=C(CN1C(=O)/C(=C/c2ccc(-c3ccc(Cl)cc3)o2)SC1=S)N1CCN(c2ccccc2F)CC1 | Active | Active | 31.25% | Active | 
COC(=O)C(Cc1ccc(O)cc1)NC(=O)CN1C(=O)/C(=C/c2ccc(-c3ccc(Cl)cc3)o2)SC1=S (configuration not stated) | Active | Active | 25% | Active | 
COc1ccc(Cn2nc(C3CC3)cc2NC(=O)CN2C(=O)/C(=C/c3ccc(-c4ccc(Cl)cc4)o3)SC2=S)cc1 | Active | Active | 56.25% |  | 4.8 mL
Cc1nc(-c2ccc(NC(=O)CN3C(=O)/C(=C/c4ccc(-c5ccc(Cl)cc5)o4)SC3=S)cc2)no1 | Active | Active | 43.75% |  | 5.2 mL
